{"source": "ChEMBL document CHEMBL5696442", "about": "“Discovery of type II inhibitors of TGFβ-activated kinase 1 (TAK1) and mitogen-activated protein kinase kinase kinase kinase 2 (MAP4K2)” (J Med Chem, 2015)", "key": {"[1]": {"target": "Serine/threonine-protein kinase 38 (Homo sapiens) (UniProt Q15208)", "sequence (Q15208 2-465 limits assumed)": "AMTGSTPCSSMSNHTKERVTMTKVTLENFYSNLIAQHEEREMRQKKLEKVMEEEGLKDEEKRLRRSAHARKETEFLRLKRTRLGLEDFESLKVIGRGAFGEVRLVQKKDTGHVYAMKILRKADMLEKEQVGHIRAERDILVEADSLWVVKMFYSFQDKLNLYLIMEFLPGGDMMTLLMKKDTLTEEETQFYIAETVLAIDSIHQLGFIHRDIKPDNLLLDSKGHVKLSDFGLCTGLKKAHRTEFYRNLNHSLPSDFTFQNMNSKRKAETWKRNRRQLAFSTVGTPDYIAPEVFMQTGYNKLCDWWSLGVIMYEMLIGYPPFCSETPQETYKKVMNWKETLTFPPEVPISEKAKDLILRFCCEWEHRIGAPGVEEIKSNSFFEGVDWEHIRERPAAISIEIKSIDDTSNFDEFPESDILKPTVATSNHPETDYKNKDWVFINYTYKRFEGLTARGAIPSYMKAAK", "test": "Inhibition of NDR1 ACT labeling site in human Huh-7 cell lysate at 1 uM by KiNativ Profiling analysis relative to control", "type": "subcellular"}, "[2]": {"target": "Tyrosine-protein kinase JAK1 (Homo sapiens) (UniProt P23458)", "sequence (P23458 whole entry, the tested form may be a part)": "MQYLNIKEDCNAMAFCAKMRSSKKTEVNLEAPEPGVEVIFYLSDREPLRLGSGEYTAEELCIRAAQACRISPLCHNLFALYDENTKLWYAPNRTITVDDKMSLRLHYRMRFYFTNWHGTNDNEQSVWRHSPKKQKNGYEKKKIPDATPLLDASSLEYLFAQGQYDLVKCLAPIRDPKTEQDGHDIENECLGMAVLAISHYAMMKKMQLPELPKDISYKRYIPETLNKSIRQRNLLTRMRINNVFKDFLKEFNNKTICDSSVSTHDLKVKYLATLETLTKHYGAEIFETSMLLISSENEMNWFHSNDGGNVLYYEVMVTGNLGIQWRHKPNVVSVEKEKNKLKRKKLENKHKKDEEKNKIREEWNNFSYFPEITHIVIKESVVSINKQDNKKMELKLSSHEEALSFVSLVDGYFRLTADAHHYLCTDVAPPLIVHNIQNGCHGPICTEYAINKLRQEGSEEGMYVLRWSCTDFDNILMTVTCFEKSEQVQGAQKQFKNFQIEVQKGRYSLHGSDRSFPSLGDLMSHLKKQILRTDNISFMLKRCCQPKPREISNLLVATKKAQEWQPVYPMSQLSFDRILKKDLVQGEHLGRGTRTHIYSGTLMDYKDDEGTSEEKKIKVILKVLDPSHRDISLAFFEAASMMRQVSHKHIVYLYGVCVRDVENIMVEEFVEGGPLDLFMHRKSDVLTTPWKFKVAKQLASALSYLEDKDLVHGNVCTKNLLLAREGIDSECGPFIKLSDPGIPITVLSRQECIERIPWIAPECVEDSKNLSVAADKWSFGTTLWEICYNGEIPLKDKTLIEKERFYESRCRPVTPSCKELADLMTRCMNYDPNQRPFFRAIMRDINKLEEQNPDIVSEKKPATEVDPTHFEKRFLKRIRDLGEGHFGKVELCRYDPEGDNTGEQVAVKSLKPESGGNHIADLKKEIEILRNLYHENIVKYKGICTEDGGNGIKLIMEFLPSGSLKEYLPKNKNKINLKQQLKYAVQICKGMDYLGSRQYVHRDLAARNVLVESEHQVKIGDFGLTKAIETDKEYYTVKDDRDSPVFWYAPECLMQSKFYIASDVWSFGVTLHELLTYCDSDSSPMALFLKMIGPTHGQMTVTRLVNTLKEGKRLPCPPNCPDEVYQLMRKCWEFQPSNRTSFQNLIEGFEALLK", "test": "Inhibition of JAK1 domain2 ACT labeling site in human A-375 cells at 0.5 uM by KiNativ Profiling analysis relative to control", "type": "cell-based"}, "[3]": {"target": "Phosphatidylinositol 3-kinase C2 domain-containing subunit gamma (Homo sapiens) (UniProt O75747)", "sequence (O75747 whole entry, the tested form may be a part)": "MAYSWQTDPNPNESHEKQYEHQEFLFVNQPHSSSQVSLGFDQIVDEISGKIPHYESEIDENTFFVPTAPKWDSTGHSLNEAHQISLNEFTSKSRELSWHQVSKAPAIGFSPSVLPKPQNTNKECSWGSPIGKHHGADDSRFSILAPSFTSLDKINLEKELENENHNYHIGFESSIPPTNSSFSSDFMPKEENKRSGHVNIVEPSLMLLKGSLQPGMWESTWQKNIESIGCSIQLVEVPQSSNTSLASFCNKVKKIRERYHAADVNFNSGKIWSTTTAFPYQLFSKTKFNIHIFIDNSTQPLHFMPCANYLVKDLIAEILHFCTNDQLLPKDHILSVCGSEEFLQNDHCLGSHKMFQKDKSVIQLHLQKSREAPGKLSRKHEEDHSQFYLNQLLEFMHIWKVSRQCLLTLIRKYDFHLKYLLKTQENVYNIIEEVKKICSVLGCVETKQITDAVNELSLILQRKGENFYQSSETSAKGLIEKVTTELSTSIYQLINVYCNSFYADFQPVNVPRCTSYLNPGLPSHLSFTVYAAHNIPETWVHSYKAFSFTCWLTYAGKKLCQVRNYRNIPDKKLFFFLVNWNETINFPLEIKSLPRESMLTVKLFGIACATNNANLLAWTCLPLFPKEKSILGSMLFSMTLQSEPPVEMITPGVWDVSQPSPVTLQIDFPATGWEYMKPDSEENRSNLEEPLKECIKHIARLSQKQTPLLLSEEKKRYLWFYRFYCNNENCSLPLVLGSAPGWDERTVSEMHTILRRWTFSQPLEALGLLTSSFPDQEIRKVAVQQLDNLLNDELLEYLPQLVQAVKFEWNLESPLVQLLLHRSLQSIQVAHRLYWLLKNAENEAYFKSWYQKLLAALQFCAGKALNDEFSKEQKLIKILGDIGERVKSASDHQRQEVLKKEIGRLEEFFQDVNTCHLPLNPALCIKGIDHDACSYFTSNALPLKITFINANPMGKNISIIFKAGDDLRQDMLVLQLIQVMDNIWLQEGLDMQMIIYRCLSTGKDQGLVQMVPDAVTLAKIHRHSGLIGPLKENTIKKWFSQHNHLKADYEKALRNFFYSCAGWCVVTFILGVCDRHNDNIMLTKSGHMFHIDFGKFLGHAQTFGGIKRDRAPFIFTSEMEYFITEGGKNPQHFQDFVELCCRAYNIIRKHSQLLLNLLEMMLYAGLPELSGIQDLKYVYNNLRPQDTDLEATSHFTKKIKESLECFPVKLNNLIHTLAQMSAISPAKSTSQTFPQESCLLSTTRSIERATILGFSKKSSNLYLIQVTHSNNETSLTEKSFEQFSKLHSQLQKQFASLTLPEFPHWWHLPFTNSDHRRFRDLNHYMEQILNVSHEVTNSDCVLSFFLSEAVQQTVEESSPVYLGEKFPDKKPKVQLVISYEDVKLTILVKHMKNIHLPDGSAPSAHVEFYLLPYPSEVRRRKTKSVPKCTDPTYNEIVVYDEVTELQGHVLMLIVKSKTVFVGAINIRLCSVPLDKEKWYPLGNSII", "test": "Inhibition of PIK3C2G (unknown origin) at 1 uM by Ambit Kinomescan binding assay relative to control; values are per cent of control"}, "[4]": {"target": "Cyclin-dependent kinase 5 (Homo sapiens) (UniProt Q00535)", "test": "Inhibition of CDK5 Lys1 labeling site in human A-375 cells at 0.05 uM by KiNativ Profiling analysis relative to control", "type": "cell-based"}, "[5]": {"target": "Epidermal growth factor receptor (Homo sapiens) (UniProt P00533)", "sequence (P00533 whole entry)": "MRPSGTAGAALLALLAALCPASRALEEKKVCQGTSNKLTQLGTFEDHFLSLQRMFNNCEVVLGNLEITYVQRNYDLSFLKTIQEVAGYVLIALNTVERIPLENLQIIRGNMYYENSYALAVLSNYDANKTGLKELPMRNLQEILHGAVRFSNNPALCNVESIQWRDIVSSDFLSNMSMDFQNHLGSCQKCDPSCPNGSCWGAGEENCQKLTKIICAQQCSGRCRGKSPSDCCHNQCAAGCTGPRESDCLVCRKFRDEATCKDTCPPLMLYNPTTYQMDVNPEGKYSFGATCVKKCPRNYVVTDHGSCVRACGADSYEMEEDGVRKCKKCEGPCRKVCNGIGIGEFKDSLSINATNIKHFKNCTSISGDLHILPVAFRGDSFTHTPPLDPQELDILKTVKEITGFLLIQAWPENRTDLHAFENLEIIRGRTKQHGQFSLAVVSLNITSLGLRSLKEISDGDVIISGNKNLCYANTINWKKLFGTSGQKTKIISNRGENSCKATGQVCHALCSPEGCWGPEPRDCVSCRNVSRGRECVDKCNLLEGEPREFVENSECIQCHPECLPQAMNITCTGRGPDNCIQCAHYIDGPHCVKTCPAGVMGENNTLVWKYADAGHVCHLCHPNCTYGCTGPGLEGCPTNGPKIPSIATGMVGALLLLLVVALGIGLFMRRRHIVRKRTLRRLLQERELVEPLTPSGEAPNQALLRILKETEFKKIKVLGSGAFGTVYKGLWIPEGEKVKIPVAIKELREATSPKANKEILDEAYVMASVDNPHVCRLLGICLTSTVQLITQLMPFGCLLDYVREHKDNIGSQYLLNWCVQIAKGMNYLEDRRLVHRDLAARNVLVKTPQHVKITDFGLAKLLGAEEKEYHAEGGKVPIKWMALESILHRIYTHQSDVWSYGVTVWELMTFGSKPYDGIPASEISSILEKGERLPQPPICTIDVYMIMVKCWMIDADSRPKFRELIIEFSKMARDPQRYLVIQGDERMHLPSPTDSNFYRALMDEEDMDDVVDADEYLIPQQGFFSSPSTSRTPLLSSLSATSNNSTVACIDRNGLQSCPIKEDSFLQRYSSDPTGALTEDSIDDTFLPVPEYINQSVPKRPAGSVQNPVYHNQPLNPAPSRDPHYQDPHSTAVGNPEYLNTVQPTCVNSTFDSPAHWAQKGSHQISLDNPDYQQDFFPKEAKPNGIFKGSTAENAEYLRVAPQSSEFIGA", "test": "Inhibition of EGFR ACT labeling site harbouring ITDFGLAKLLGAEEK in human A-375 cells at 0.5 uM by KiNativ Profiling analysis relative to control", "type": "cell-based"}, "[6]": {"target": "T1, Serine/threonine-protein kinase ULK1 (Homo sapiens) (UniProt O75385)", "T1 sequence (whole entry)": "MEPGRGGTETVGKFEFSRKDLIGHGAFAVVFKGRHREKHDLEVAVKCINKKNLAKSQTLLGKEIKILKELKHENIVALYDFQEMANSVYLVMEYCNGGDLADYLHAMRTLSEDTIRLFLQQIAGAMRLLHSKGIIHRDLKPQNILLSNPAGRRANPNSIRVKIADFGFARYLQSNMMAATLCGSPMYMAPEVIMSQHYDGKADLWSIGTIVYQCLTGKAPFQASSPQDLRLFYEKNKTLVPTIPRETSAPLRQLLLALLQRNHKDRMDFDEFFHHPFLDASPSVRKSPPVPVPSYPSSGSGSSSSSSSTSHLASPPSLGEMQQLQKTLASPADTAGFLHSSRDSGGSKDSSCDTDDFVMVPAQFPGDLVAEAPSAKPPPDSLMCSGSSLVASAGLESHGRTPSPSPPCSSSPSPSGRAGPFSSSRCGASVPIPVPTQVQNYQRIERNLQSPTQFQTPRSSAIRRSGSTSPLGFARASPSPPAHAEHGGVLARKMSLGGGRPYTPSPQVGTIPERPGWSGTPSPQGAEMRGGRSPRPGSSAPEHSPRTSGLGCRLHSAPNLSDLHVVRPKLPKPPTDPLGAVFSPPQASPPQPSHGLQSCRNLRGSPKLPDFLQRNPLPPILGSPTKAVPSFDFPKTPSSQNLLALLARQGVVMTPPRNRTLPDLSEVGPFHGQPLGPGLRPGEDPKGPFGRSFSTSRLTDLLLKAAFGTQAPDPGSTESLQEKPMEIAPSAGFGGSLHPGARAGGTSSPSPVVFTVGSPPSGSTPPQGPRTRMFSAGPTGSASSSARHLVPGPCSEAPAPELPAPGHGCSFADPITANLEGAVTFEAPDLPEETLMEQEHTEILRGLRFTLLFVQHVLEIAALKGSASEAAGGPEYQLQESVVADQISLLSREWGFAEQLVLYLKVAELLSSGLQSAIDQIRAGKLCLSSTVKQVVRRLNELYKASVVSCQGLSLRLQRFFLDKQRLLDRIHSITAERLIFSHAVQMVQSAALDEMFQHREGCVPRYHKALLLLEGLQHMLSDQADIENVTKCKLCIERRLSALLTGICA", "test": "Inhibition of ULK1 Lys2 labeling site in human A-375 cells at 0.5 uM by KiNativ Profiling analysis relative to control", "type": "cell-based"}, "[7]": {"target": "Serine/threonine-protein kinase PAK 2 (Homo sapiens) (UniProt Q13177)", "sequence (Q13177 whole entry)": "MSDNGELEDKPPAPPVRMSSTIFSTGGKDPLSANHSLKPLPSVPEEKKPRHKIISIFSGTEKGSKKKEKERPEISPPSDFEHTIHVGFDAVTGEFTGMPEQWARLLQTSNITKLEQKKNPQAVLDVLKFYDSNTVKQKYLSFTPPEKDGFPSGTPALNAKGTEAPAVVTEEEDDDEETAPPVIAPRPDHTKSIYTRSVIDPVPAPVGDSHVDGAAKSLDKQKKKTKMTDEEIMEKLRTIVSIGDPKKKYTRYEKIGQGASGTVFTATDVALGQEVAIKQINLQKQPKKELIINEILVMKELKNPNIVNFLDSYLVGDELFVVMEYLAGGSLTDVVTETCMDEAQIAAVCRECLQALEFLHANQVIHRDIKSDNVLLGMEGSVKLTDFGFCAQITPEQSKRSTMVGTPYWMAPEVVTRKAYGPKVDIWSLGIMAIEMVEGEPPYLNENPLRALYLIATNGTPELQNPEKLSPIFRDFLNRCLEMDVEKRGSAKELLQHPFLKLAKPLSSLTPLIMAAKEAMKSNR", "test": "Inhibition of PAK2 (unknown origin) at 10 uM by Ambit Kinomescan binding assay"}, "[8]": {"target": "T2, Mitogen-activated protein kinase kinase kinase 6 (Homo sapiens) (UniProt O95382)", "T2 sequence (whole entry)": "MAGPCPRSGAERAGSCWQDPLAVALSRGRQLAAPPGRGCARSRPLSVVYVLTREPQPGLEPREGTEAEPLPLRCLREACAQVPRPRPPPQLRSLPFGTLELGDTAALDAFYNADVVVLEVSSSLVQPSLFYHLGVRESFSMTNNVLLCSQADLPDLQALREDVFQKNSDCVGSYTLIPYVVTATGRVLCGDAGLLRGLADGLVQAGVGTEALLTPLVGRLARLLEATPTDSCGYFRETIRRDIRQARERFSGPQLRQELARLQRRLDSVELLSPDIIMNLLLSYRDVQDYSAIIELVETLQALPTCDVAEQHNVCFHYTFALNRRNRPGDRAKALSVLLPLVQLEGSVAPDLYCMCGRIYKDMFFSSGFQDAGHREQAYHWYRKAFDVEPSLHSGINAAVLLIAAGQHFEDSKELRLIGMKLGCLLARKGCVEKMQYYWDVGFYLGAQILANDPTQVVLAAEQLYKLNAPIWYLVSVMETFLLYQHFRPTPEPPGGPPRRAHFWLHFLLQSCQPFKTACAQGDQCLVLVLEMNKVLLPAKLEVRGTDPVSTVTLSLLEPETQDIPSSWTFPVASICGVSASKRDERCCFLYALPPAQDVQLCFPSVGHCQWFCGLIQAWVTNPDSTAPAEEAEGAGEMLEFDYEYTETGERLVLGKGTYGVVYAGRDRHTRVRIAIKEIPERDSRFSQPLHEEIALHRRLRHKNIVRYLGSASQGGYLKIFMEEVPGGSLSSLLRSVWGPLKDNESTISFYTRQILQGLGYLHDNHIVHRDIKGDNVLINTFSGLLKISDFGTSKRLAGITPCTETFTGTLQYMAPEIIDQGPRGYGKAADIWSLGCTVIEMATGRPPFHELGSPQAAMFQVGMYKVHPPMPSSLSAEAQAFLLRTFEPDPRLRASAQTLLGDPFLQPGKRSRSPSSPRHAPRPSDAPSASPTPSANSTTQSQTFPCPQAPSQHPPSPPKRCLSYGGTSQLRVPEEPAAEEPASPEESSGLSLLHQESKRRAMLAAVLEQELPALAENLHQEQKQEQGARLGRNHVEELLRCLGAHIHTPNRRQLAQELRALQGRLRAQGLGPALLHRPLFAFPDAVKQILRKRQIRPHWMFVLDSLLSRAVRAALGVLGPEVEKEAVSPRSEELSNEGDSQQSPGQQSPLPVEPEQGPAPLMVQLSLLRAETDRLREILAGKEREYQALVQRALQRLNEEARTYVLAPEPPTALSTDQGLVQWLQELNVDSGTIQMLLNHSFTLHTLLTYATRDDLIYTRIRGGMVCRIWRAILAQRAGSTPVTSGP", "test": "Inhibition of MAP3K6 Lys1 labeling site harbouring IAIKEIPERDSR in human A-375 cells at 0.05 uM by KiNativ Profiling analysis relative to control", "type": "cell-based"}}, "note": "Calls of active or inactive are those of the source. No cut-off for these calls is given here.", "data": [{"smiles": "CNc1cc(Oc2cc(C(=O)Nc3cc(N4CCN(C)CC4)cc(C(F)(F)F)c3)ccc2C)ncn1", "values": [{"measurement": "inhibition", "setting": "[1]", "value": 4.2, "unit": "%"}]}, {"smiles": "CCN1CCN(Cc2ccc(NC(=O)c3ccc(C)c(/C=C/c4cnc5[nH]ccc5c4OC)c3)cc2C(F)(F)F)CC1", "values": [{"measurement": "inhibition", "setting": "[2]", "value": 5, "unit": "%"}, {"measurement": "residual activity", "setting": "[3]", "value": 100, "unit": "%"}]}, {"smiles": "CCN1CCN(Cc2ccc(NC(=O)c3ccc(C)c(Oc4ccnc5[nH]ccc45)c3)cc2C(F)(F)F)CC1", "values": [{"measurement": "inhibition", "setting": "[4]", "value": 16.5, "unit": "%"}, {"measurement": "inhibition", "setting": "[5]", "value": 0.7, "unit": "%"}, {"measurement": "inhibition", "setting": "[6]", "value": -6.3, "unit": "%"}, {"measurement": "inhibition", "setting": "[7]", "value": "inactive"}, {"measurement": "inhibition", "setting": "[8]", "value": -3.3, "unit": "%"}]}]}
